These results are taken from patent US20050255491A1, “Small molecule and peptide arrays and uses thereof” (priority 2003, published 2005).

Data set [1] relates to alkaline protease from Bacillus sp. PS719. The following applies: cited from earlier work.
Data set [2] relates to obese (NZO×NON)F1 male mice. The settings on record: chronic treatment; cited from earlier work.
Data set [3] concerns the target antibodies specific for the respective peptide antigens. The following applies: antibody against the listed peptide; value taken from the reference; read-out: Affinity KD; cited from earlier work.
For data set [4], the system named is antibody P1 (specific for PSA-derived PET EPAELTDA). Briefly: Peptide competition assay, antibody P1. The class given is binding. The following applies: for fold higher concentration at which nearest neighbor is still ineffective: relative to antigen PET EPAELTDA
On the procedure:
(§1) In certain embodiments of the invention, a peptide competition assay may be used to determine the binding specificity of a capture agent towards its target PET, as compared to several nearest neighbor sequences of the PET. The same protocol can be adapted for small molecule-based competition assay
(§2) For a typical peptide competition assay, the following illustrative protocol may be used: 1 μg/100 μl/well of each target peptide is coated in Maxisorb Plates with coating buffer (carbonate buffer, pH 9.6) overnight at 4° C., or 1 hour at room temperature. The plates are washed with 300 μl of PBST (1×PBS/0.05% Tween 20) for 4 times. Then 300 μl of blocking buffer (2% BSA/PBST) is added and the plates are incubated for 1 hour at room temperature. Following blocking, the plates are washed with 300 μl of PBST for 4 times.
Synthesized competition peptides are dissolved in water to a final concentration of 2 mM solution. Serial dilution of competition peptides (for example, from 100 pM to 100 μM) in digested human serum are prepared. These competition peptides at particular concentrations are then mixed with equal amounts of primary antibodies against the target peptide. These mixtures are then added to plate wells with immobilized target peptides respectively. Binding is allowed to proceed for 2 hours at room temperature. The plates are washed with 300 μl of PBST for 4 times. Then labeled secondary antibody against the primary antibody, such as 100 μl of 5,000× diluted anti-rabbit-IgG-HRP, is added and incubated for 1 more hour at room temperature. The plates are washed with 300 μl of PBST for 6 times. For detection of the HRP label activity, add 100 μl of TMB substrate (for HRP) and incubate for 15 minutes at room temperature. Add 100 μl of stop buffer (2N HCL) and read the plates at OD450. A peptide competition curve is plotted using the ABS at OD450 versus the competitor peptide concentrations. […]

For data set [5], the system named is antibody C1 (specific for CRP-derived PET YEVQGEVF). Briefly: Peptide competition assay, antibody C1. The format is binding. The following applies: competitor peptide against immobilized PET, neighbors completely ineffective even at the stated concentration, read-out: half-maximum effective peptide concentration. The protocol:
as §1, §2
Synthesized competition peptides are dissolved in water to a final concentration of 2 mM solution. Serial dilution of competition peptides (for example, from 100 pM to 100 μM) in digested human serum are prepared. These competition peptides at particular concentrations are then mixed with equal amounts of primary antibodies against the target peptide. These mixtures are then added to plate wells with immobilized target peptides respectively. Binding is allowed to proceed for 2 hours at room temperature. […] Add 100 μl of stop buffer (2N HCL) and read the plates at OD450. […]

Data set [6] concerns the target PET-specific antibody used in the peptide competition assay for the Troponin T peptide …. Description: peptide competition ELISA with immobilized peptide, in 10mM digested serum proteins, ABS 450.
The target of data set [7] is antibody C1, specific for the CRP-derived 8-mer PET sequence YEVQGEVF
Briefly: peptide competition ELISA: soluble peptide series against the same immobilized peptide for a fixed concentration of antibody, in 10 mM digested serum proteins, HRP secondary antibody, ABS 450.

The target is the same in data set [8]. Description: peptide competition assay, soluble PET against immobilized PET for antibody C1.
Data set [9] deals with antibody C2, specific for the CRP PET sequence GYSIFSYA
Description: peptide competition ELISA: soluble peptide series against the same immobilized peptide for a fixed concentration of antibody, in 10 mM digested serum proteins, HRP secondary antibody, ABS 450.

Data set [10] deals with antibody used in the PET-based peptide competition assay for the Survivin peptide …. Briefly: Survivin Peptide Competitive Assay, ABS 450.
Where [11] appears, read: liberation of p-nitroaniline from the substrate.

Consider `O=c1oc(Cl)c(Cl)c2ccccc12` [DCI, 3,4-dichloroisocoumarin], for which the “inhibition of protease activity” value in data set [1] was “completely inhibited”.
For `O=S(=O)(F)Cc1ccccc1` [PMSF, phenylmethylsulfonyl fluoride], the “inhibition of protease activity” value in [1] is given as “completely inhibited”.
`Cc1ccc(S(=O)(=O)N[C@@H](CCCCN)C(=O)CCl)cc1` [TLCK, N-α-p-tosyl-L-lysine chloromethyl ketone]: the “inhibition of protease activity” value in data set [1] is “completely inhibited”.
On to `CN(CCOc1ccc(CC2SC(=O)NC2=O)cc1)c1ccccn1` (stereo not drawn) [rosiglitazone], for which the “effect on hepatic steatosis” value in [2] is given as “markedly exacerbated”.
For the molecule CRGTGSYNRSSFESSSG, the Kd in data set [3] was 2.8 nM.
With “DPTQLTDA [nearest-neighbor 8-mer of EPAELTDA found in the human proteome]”, the “fold higher concentration at which nearest neighbor is still ineffective” value in data set [4] is 25,000 fold.
Turning to EPAELTDA, the IC50 in data set [4] (competitor peptide against immobilized PET, read-out: half-maximum effective peptide concentration) is around 40 nM.
For “EPVELTSA [nearest-neighbor 8-mer of EPAELTDA found in the human proteome]”, the “fold higher concentration at which nearest neighbor is still ineffective” value in [4] is 25,000 fold.
GATPEDLNQKLAGN: the equilibrium dissociation constant (Kd) in data set [3] was 1.4 nM.
Consider “HHHHH [HHHHH (HIS tag), 5-aa HIS tag peptide]”, for which the Kd in data set [3] is 25 nM.
“MDYKAFDN (FLAG tag) [8-aa FLAG tag peptide]”: the Kd in data set [3] is 2.3 nM.
Take “N-carbobenzoxy (CBZ)-L-arginine-p-nitroanilide”: in data set [1] (setting [11]), the Km is 600 µM and the Vmax is recorded as 1.0 μmol min^−1 mg protein^−1.
For “NYRAYATEPHAKKKS [15-aa peptide antigen of a literature antibody (EJB 267:1819, 2000)]”, the Kd in data set [3] is 0.5 nM.
For PQSDPSVEPPLS, the dissociation constant Kd in data set [3] is 16 nM.
In the case of “RYDIEAKVTK [10-aa peptide antigen of a literature antibody (JI 169:6992, 2002)]”, in [3], the dissociation constant (Kd) was 3.5 nM.
Regarding YDVPDYAS (HA tag), in data set [3], the Kd was 2 nM.
Turning to YEVQGEVF, the IC50 in data set [5] is around 1000 nM.

B1: Troponin T tryptic PET-peptide … (peptide)
peptide: SFMPNLVPPK
B1 gave an IC50 (read off the curve) in [6] of 20 nM.

B2: CRP-derived 8-mer PET peptide YEVQGEVF (peptide)
peptide: YEVQGEVF
For the molecule B2, the Detection Limit in data set [7] was 100 pM. In [8], this molecule gave an IC50 of 1000 nM.

B3: CRP PET peptide GYSIFSYA (peptide)
peptide: GYSIFSYA
As for B3, in data set [9], the Detection Limit was 1 nM and the IC50 (read off the curve) amounted to 1000 nM.

B4: Survivin peptide … (peptide)
peptide: MGAPTLPPAWQPF
In data set [10], B4 displayed an IC50 (read off the curve) of 20 nM.
